For one test, the target named is T1, GPR6 (Homo sapiens, UniProt P46095).
T1 construct: expressed in transfected cells; host or cells: CHO cells
Nature of the test: GPR6 antagonist functional cAMP assay (LANCE Ultra cAMP TR-FRET, CHO cells stably expressing GPR6). In kind it is cell-based. In outline:
(§1)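 Compounds, at 0.1% final DMSO, acted on the cells for 45 minutes at 37 °C in the presence of the phosphodiesterase inhibitor Ro 20-1724 (150 μM). After lysis and detection, plates were shaken 1 h at room temperature and emission at 665 nm was recorded. Normalized data gave IC50 values.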

The target in the next test is T2, GPR3 (Homo sapiens, UniProt P46089).
T2 construct: expressed in transfected cells; host or cells: CHO cells
Nature of the test: GPR3 antagonist functional cAMP assay (LANCE Ultra cAMP TR-FRET, CHO cells stably expressing GPR3). In kind it is cell-based. In outline: as §1
In general terms: cAMP levels reflect the balance of adenylyl cyclase and phosphodiesterase activity.

Setting [1] is: CHO cells stably expressing GPR6, cAMP assay.
Setting [2] is: CHO cells stably expressing GPR3, cAMP assay.
Where [3] appears, read: CHO cells stably expressing GPR6, cAMP assay (Example 24).
Where [4] appears, read: CHO cells stably expressing GPR3, cAMP assay (Example 24).

T2 sequence (P46089 whole entry, species assumed): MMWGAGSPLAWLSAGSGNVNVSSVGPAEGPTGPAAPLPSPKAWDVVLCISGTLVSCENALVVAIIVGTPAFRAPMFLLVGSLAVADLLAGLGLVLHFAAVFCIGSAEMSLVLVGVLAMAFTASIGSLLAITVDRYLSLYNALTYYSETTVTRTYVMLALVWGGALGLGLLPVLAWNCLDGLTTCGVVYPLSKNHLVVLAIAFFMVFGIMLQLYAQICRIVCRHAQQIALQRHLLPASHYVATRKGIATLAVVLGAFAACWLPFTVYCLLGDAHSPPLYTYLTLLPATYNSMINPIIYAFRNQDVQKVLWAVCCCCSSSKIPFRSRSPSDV
T1 sequence (P46095 whole entry): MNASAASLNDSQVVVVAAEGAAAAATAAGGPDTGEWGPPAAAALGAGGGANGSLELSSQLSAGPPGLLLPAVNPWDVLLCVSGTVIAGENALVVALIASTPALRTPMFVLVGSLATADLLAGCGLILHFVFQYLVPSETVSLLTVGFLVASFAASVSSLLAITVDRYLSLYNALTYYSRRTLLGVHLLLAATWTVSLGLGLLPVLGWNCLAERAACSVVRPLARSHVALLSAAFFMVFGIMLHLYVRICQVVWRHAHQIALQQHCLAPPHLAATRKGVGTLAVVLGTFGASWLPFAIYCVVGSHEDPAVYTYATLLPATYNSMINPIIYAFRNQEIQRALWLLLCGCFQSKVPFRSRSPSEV

As a reminder, the IC50 is the concentration needed to halve the response being measured. Turning to `CC(C)(O)[C@H](O)c1cc2nc(N3CCC(Oc4ccc(F)cc4F)CC3)c(-c3cnn(C4CC4)c3)nc2cn1` (single isomer, unassigned) [Compound 572], the values for the IC50 on GPR6 (setting [1]) and against GPR3 (setting [2]) were 100 to 1000 nM and 1000 to 30000 nM, respectively.

For `CC(=O)N1CCc2nc(N3CCN(C(c4ccccc4)C(F)(F)F)CC3)c(-c3cnn(C)c3)nc2C1` (stereo not drawn) [Compound 730, 1-{3-(1-methyl-4-pyrazolyl)-2-[4-(2,2,2-trifluoro-1-phenylethyl)-1-piperazinyl]-5,6,7,8-tetrahydro-1,4,6-triaza-6-naphthyl}-1-ethanone], the IC50 at GPR6 (procedure of Example 24) and on GPR3 (procedure of Example 24) was 1000 to 30000 nM each time.

For the compound `CC(=O)N1CCc2nc(N3CCN(Cc4cccs4)CC3)c(-c3cnn(C)c3)nc2C1` [Compound 515, 1-[3-(1-methyl-4-pyrazolyl)-2-(4-thenyl-1-piperazinyl)-5,6,7,8-tetrahydro-1,4,6-triaza-6-naphthyl]-1-ethanone], the IC50 at GPR6 (setting [1]) and at GPR3 (setting [2]) was 1000 to 30000 nM throughout.

For `CC(C)S(=O)(=O)N1CCc2nc(N3CCC(Oc4ccc(F)cc4F)CC3)c(-c3cn[nH]c3)nc2C1` [Compound 150, 4-(2,4-difluorophenoxy)-1-[6-(propane-2-sulfonyl)-3-(1H-pyrazol-4-yl)-5H,6H,7H,8H-pyrido[3,4-b]pyrazin-2-yl]piperidine], the IC50 against GPR6 (setting [3]) is less than 100 nM; at GPR3 (setting [4]), 1000 to 30000 nM.

Consider `CC(C)(O)C(C)(O)c1cc2nc(-c3cnn(C(F)F)c3)c(N3CCN(Cc4ccc(F)cc4F)CC3)nc2cn1` (single isomer, unassigned) [Compound 663], for which the IC50 is less than 100 nM at GPR6 (procedure of Example 24) and 1000 to 30000 nM at GPR3 (procedure of Example 24).

With `COc1cncc(-c2nc3c(nc2N2CCC(Oc4ccc(F)cc4F)CC2)CCN(C(C)=O)C3)n1` [Compound 87, 1-{2-[4-(2,4-difluorophenoxy)piperidin-1-yl]-3-(6-methoxypyrazin-2-yl)-5H,6H,7H,8H-pyrido[3,4-b]pyrazin-6-yl}ethan-1-one], the IC50 at GPR6 (setting [3]) lay within 100 to 1000 nM; at GPR3 (setting [4]), 1000 to 30000 nM.

As for `CC(C)(O)C(C)(O)c1cc2nc(-c3cnn(C4CC4)c3)c(N3CCC(Oc4ccc(F)cc4F)CC3)nc2cn1` (single isomer, unassigned) [Compound 722], the values for the half-maximal inhibitory concentration (IC50) against GPR6 (procedure of Example 24) and on GPR3 (procedure of Example 24) were 100 to 1000 nM and 1000 to 30000 nM, respectively.

As to `COc1nc(-c2nc3c(nc2N2CCC(Oc4ccc(F)cc4F)CC2)CCN(C(C)=O)C3)cnc1Cl` [Compound 308], the IC50 was less than 100 nM at GPR6 (procedure of Example 24) and 1000 to 30000 nM against GPR3 (procedure of Example 24).

For `CC(=O)N1CCc2nc(N3CCN(Cc4cccc(C#N)c4)CC3)c(-c3cnn(C)c3)nc2C1` [Compound 512, m-({4-[6-acetyl-3-(1-methyl-4-pyrazolyl)-5,6,7,8-tetrahydro-1,4,6-triaza-2-naphthyl]-1-piperazinyl}methyl)benzonitrile], the 50% inhibitory concentration (IC50) on GPR6 (setting [1]) and against GPR3 (setting [2]) was 1000 to 30000 nM throughout.

For the compound `CCc1cccc(-c2nc3c(nc2N2CCC(Oc4ccc(F)cc4F)CC2)CCN(C(C)=O)C3)n1` [Compound 477, 1-{2-[4-(2,4-difluorophenoxy)piperidin-1-yl]-3-(6-ethylpyridin-2-yl)-5H,6H,7H,8H-pyrido[3,4-b]pyrazin-6-yl}ethan-1-one], the half-maximal inhibitory concentration (IC50) against GPR6 (setting [3]) and against GPR3 (setting [4]) was 1000 to 30000 nM each time.

For the compound `CC(=O)N1CCc2nc(N3CCC(Oc4cc(Cl)ccc4F)CC3)c(-c3cnn(C)c3)nc2C1` [Compound 457, 1-{2-[4-(5-chloro-2-fluorophenoxy)piperidin-1-yl]-3-(1-methyl-1H-pyrazol-4-yl)-5H,6H,7H,8H-pyrido[3,4-b]pyrazin-6-yl}ethan-1-one], the IC50 against GPR6 (setting [3]) was 100 to 1000 nM; on GPR3 (setting [4]) it was 1000 to 30000 nM.

With `CCn1cc(-c2nc3c(nc2N2CCC(Oc4ccc(F)cc4F)CC2)CCN(C(=O)C2CCCN2)C3)cn1` (stereo not drawn) [Compound 291, 4-(2,4-difluorophenoxy)-1-[3-(1-ethyl-1H-pyrazol-4-yl)-6-(pyrrolidine-2-carbonyl)-5H,6H,7H,8H-pyrido[3,4-b]pyrazin-2-yl]piperidine], the values for the 50% inhibitory concentration (IC50) against GPR6 (procedure of Example 24) and on GPR3 (procedure of Example 24) were less than 100 nM and 1000 to 30000 nM, respectively.

For `CC(=O)N1CCc2nc(N3CCC(Oc4ccc(F)c(F)c4)CC3)c(-c3cnn(C)c3)nc2C1` [Compound 453, 1-{2-[4-(3,4-difluorophenoxy)piperidin-1-yl]-3-(1-methyl-1H-pyrazol-4-yl)-5H,6H,7H,8H-pyrido[3,4-b]pyrazin-6-yl}ethan-1-one], the concentration for half-maximal inhibition (IC50) against GPR6 (setting [3]) and at GPR3 (setting [4]) was 1000 to 30000 nM each time.

Consider `COCc1cccc(-c2nc3c(nc2N2CCC(Oc4ccc(F)cc4F)CC2)CCN(C(C)=O)C3)n1` [Compound 161, 1-{2-[4-(2,4-difluorophenoxy)piperidin-1-yl]-3-[6-(methoxymethyl)pyridin-2-yl]-5H,6H,7H,8H-pyrido[3,4-b]pyrazin-6-yl}ethan-1-one], for which the half-maximal inhibitory concentration (IC50) at GPR6 (setting [3]) and at GPR3 (setting [4]) was 1000 to 30000 nM in each case.

On to `CC(=O)N1CCc2nc(N3CCCC(Oc4ccccc4)C3)c(-c3cnn(C)c3)nc2C1` (stereo not drawn) [Compound 335, 1-[3-(1-methyl-1H-pyrazol-4-yl)-2-(3-phenoxypiperidin-1-yl)-5H,6H,7H,8H-pyrido[3,4-b]pyrazin-6-yl]ethan-1-one], for which the figures for the half-maximal inhibitory concentration (IC50) at GPR6 (procedure of Example 24) and against GPR3 (procedure of Example 24) were not below 30000 nM and 1000 to 30000 nM, respectively.

For the compound `CC(=O)N1CCc2nc(N3CCN(Cc4c(F)cccc4F)CC3)c(-c3cnn(C)c3)nc2C1` [Compound 346, 1-(2-{4-[(2,6-difluorophenyl)methyl]piperazin-1-yl}-3-(1-methyl-1H-pyrazol-4-yl)-5H,6H,7H,8H-pyrido[3,4-b]pyrazin-6-yl)ethan-1-one], the results for the half-inhibitory concentration (IC50) at GPR6 (procedure of Example 24) and at GPR3 (procedure of Example 24) were 1000 to 30000 nM and 100 to 1000 nM, respectively.

On to `CC(=O)N1CCc2nc(N3CCN(C(=O)c4ccc(Cl)c(C)c4)CC3)c(-c3cnn(C)c3)nc2C1` [Compound 539, 1-{2-[4-(4-chloro-3-toluoyl)-1-piperazinyl]-3-(1-methyl-4-pyrazolyl)-5,6,7,8-tetrahydro-1,4,6-triaza-6-naphthyl}-1-ethanone], for which the IC50 against GPR6 (setting [1]) and on GPR3 (setting [2]) was 1000 to 30000 nM in each case.

As for `CC(=O)N1CCc2nc(N3CCC(Oc4ccccc4)CC3)c(-c3cnn(C)c3)nc2C1` [Compound 419, 1-[3-(1-methyl-1H-pyrazol-4-yl)-2-(4-phenoxypiperidin-1-yl)-5H,6H,7H,8H-pyrido[3,4-b]pyrazin-6-yl]ethan-1-one], the half-inhibitory concentration (IC50) against GPR6 (setting [3]) and on GPR3 (setting [4]) was 1000 to 30000 nM each time.

As for `COCC1CC1c1nc2c(nc1N1CCC(Oc3ccc(F)cc3F)CC1)CCN(C(C)=O)C2` (stereo not drawn) [Compound 463, 1-(2-(4-(2,4-difluorophenoxy)piperidin-1-yl)-3-(2-(methoxymethyl)cyclopropyl)-7,8-dihydropyrido[3,4-b]pyrazin-6(5H)-yl)ethan-1-one], the half-maximal inhibitory concentration (IC50) against GPR6 (setting [3]) lay in the range of 100 to 1000 nM; on GPR3 (setting [4]), 1000 to 30000 nM.

For the compound `COCCNc1cc2nc(N3CCC(Oc4ccc(F)cc4F)CC3)c(-c3cnn(C)c3)nc2cn1` [Compound 380, 2-[4-(2,4-difluorophenoxy)piperidin-1-yl]-N-(2-methoxyethyl)-3-(1-methyl-1H-pyrazol-4-yl)pyrido[3,4-b]pyrazin-7-amine], the IC50 against GPR6 (setting [3]) was 100 to 1000 nM; against GPR3 (setting [4]) it was 1000 to 30000 nM.

Take `CC(=O)N1CCc2nc(N3CCC(Oc4ccc(F)cc4F)CC3)c(-c3cccc4nccn34)nc2C1` [Compound 129, 1-{2-[4-(2,4-difluorophenoxy)piperidin-1-yl]-3-{imidazo[1,2-a]pyridin-5-yl}-5H,6H,7H,8H-pyrido[3,4-b]pyrazin-6-yl}ethan-1-one]: the half-maximal inhibitory concentration (IC50) on GPR6 (setting [3]) and against GPR3 (setting [4]) was 1000 to 30000 nM throughout.

Consider `CC(C)(O)[C@@](C)(O)c1cc2nc(-c3cnn(CF)c3)c(N3CCC(Oc4ccc(F)cc4F)CC3)nc2cn1` (single isomer, unassigned) [Compound 783], for which the IC50 at GPR6 (procedure of Example 24) was in the range of 100 to 1000 nM; on GPR3 (procedure of Example 24), 1000 to 30000 nM.

In the case of `CNC(=O)C(C)N1CCc2nc(N3CCC(Oc4ccc(F)cc4F)CC3)c(-c3cnn(C4CCCCO4)c3)nc2C1` (stereo not drawn) [Compound 146, 2-{2-[4-(2,4-difluorophenoxy)piperidin-1-yl]-3-[1-(oxan-2-yl)-1H-pyrazol-4-yl]-5H,6H,7H,8H-pyrido[3,4-b]pyrazin-6-yl}-N-methylpropanamide], the IC50 against GPR6 (setting [3]) and against GPR3 (setting [4]) was 1000 to 30000 nM in each case.

Turning to `COCC(O)c1cc2nc(N3CCN(Cc4ccc(F)cc4F)CC3)c(-c3cnn(C(F)F)c3)nc2cn1` (stereo not drawn) [Compound 687, 1-{3-[1-(difluoromethyl)-4-pyrazolyl]-2-{4-[(2,4-difluorophenyl)methyl]-1-piperazinyl}-1,4,6-triaza-7-naphthyl}-2-methoxy-1-ethanol], the half-inhibitory concentration (IC50) fell in the range of 100 to 1000 nM on GPR6 (procedure of Example 24) and 1000 to 30000 nM against GPR3 (procedure of Example 24).

For the compound `CCn1cc(-c2nc3c(nc2N2CCC(Oc4ccc(F)cc4F)CC2)CCN(C(=O)CO)C3)cn1` [Compound 311, 1-{2-[4-(2,4-difluorophenoxy)piperidin-1-yl]-3-(1-ethyl-1H-pyrazol-4-yl)-5H,6H,7H,8H-pyrido[3,4-b]pyrazin-6-yl}-2-hydroxyethan-1-one], the results for the IC50 on GPR6 (procedure of Example 24) and against GPR3 (procedure of Example 24) were less than 100 nM and 1000 to 30000 nM, respectively.

Regarding `Cn1cc(-c2nc3cnc(C4CNC(=O)CO4)cc3nc2N2CCC(Oc3ccc(F)cc3F)CC2)cn1` (stereo not drawn) [Compound 464, 6-(2-(4-(2,4-difluorophenoxy)piperidin-1-yl)-3-(1-methyl-1H-pyrazol-4-yl)pyrido[3,4-b]pyrazin-7-yl)morpholin-3-one], the IC50 at GPR6 (setting [3]) lay within 100 to 1000 nM; against GPR3 (setting [4]) it was 1000 to 30000 nM.

In the case of `CC(C)(O)C(O)c1cc2nc(-c3cn[nH]c3)c(N3CCC(=Cc4ccc(F)cc4F)CC3)nc2cn1` (stereo not drawn) [Compound 780, 1-(3-{4-[(2,4-difluorophenyl)methylene]-1-piperidyl}-2-(4-pyrazolyl)-1,4,6-triaza-7-naphthyl)-2-methyl-1,2-propanediol], the IC50 against GPR6 (procedure of Example 24) was less than 100 nM; against GPR3 (procedure of Example 24) it was 100 to 1000 nM.

For the origin of these results see patent US20260042755A1, “GPR6 INVERSE AGONISTS” (MapLight Therapeutics, Inc., priority 2022, published 2026).
